SMILES strings stand for the structures.

For the experiment, the target named is GTP-binding protein Di-Ras1 (Homo sapiens) (UniProt O95057). Nature of the experiment: ligand-induced DIRAS1 melting temperature shift – biophysical, recombinant human GTPase, DSF (AID 386). The settings on record: recombinant DIRAS1, DSF thermal shift, SYPRO orange; at 10 µM; protein 2 µM; buffer 10 mM HEPES; pH 7.5; NaCl 150 mM; stronger effect = higher value.
GTP-binding protein Di-Ras1 (Homo sapiens), sequence (O95057 whole entry, looked up): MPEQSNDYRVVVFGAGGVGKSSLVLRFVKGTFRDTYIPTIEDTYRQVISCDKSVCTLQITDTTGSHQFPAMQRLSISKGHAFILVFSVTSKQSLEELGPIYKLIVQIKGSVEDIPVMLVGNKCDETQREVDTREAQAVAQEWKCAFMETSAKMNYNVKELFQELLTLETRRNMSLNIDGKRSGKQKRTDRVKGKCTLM
Regarding `NS(=O)(=O)c1ccc(Nc2nc(OCC3CCCCC3)c3[nH]cnc3n2)cc1`, the Tm shift was 2.1 Celsius.
For `O=c1c(O)c(-c2ccc(O)c(O)c2)oc2cc(O)cc(O)c12`, the Tm shift is 3.3 Celsius.
As to `CN[C@@H]1C[C@H]2OC(C)([C@@H]1OC)n1c3ccccc3c3c4c(c5c6ccccc6n2c5c31)C(=O)NC4`, the Tm shift came out at 2.6 Celsius.
For the compound `COc1ccc(S(O)(O)N(CCO)c2ccccc2CN(C)C/C=C/c2ccc(Cl)cc2)cc1`, the Tm shift was 4.4 Celsius.

Source of the values: PubChem BioAssay AID386.
